20 compounds from patent US20250263424A1, “KRAS INHIBITORS” (Bristol-Myers Squibb Company, priority 2022, published 2025) can be followed below.

Chain of Recombinant GMPPNP-loaded KRAS G12C (KRAS-G12C(ON), active form) (P01116 1-188 isoform P01116-2 G12C): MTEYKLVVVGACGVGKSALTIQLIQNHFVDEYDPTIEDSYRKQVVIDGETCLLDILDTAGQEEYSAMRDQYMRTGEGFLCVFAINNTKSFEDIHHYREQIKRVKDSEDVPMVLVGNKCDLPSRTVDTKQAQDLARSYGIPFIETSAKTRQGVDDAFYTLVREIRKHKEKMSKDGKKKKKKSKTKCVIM

The experiment has as its target Recombinant GMPPNP-loaded KRAS G12C (KRAS-G12C(ON), active form) (Homo sapiens, UniProt P01116, G12C). As to the kind of experiment: KRAS G12C RAF Disruption Assay (HTRF). Conditions: GMPPNP-loaded KRAS G12C 5 nM, GST-RAF1 RBD 9 nM, values in nM, read-out: KRASG12C RAF Disruption Assay (IC50). Type of experiment: biochemical. The method, then: This is a functional assay that measures activity of compounds against […]., the active form of KRAS G12C. Recombinant GMPPNP-loaded KRAS G12C (5 nM) was treated with compound at room temperature for 20 minutes in assay buffer (50 mM Tris pH 7.5, 100 mM NaCl, 1 mM MgCl2, 1 mM DTT, 100 μg/ml BSA). Recombinant GST-RAF1 RBD (9 nM) was added, and the reaction mixture was incubated for 20 minutes. SA-Tb (0.25 nM) was added, and the reaction mixture was incubated for 3 hours. HTRF signal was measured (PerkinElmer Envision), the signal ratio (λem 520/λem 495) was calculated, and IC50 values were calculated from the dose-response curve.
As for `C#Cc1c(F)ccc2cc(O)cc(-c3ccc4c(N5C[C@H]6CC[C@@H](C5)N6C(=O)/C(F)=C/c5cccc(C)n5)nc(OC[C@@H]5CCCN5C)nc4c3F)c12` [Example 35, (Z)-1-((1R,5S)-3-(7-(8-ethynyl-7-fluoro-3-hydroxynaphthalen-1-yl)-8-fluoro-2-(((S)-1-methylpyrrolidin-2-yl)methoxy)quinazolin-4-yl)-3,8-diazabicyclo[3.2.1]octan-8-yl)-2-fluoro-3-(6-methylpyridin-2-yl)prop-2-en-1-one], the 50% inhibitory concentration (IC50) came to 290 nM.

On to `Cc1cccc(/C=C(\F)C(=O)N2CCN(c3nc(OC[C@@H]4CCCN4C)nc4c(F)c(-c5cccc6cccc(Cl)c56)ccc34)C[C@@H]2CC#N)n1` [Example 36, 2-((S)-1-((Z)-2-fluoro-3-(6-methylpyridin-2-yl)acryloyl)-4-(8-fluoro-7-(8-chloronaphthalen-1-yl)-2-(((S)-1-methylpyrrolidin-2-yl)methoxy)quinazolin-4-yl)piperazin-2-yl)acetonitrile], for which the IC50 stood at 25 nM.

Regarding `CN1CCC[C@H]1COc1nc(N2CCN(C(=O)/C(F)=C/c3ccccn3)[C@@H](CC#N)C2)c2ccc(-c3cccc4cccc(Cl)c34)c(F)c2n1` [Example 37, 2-((S)-1-((Z)-2-fluoro-3-(pyridin-2-yl)acryloyl)-4-(8-fluoro-7-(8-chloronaphthalen-1-yl)-2-(((S)-1-methylpyrrolidin-2-yl)methoxy)quinazolin-4-yl)piperazin-2-yl)acetonitrile], the IC50 stood at 110 nM.

`CN1CCC[C@H]1COc1nc(N2CCN(C(=O)/C(F)=C/c3ncccn3)[C@@H](CC#N)C2)c2ccc(-c3cccc4cccc(Cl)c34)c(F)c2n1` [Example 38, 2-((S)-1-((Z)-2-fluoro-3-(pyrimidin-2-yl)acryloyl)-4-(8-fluoro-7-(8-chloronaphthalen-1-yl)-2-(((S)-1-methylpyrrolidin-2-yl)methoxy)quinazolin-4-yl)piperazin-2-yl)acetonitrile]: the IC50 turned out to be 130 nM.

On to `N#CC[C@H]1CN(c2nc(OC[C@@]34CCCN3C[C@H](F)C4)nc3c(F)c(-c4cc(O)cc5ccccc45)ccc23)CCN1C(=O)/C(F)=C/c1ccccn1` [Example 39, 2-((S)-4-(8-fluoro-2-(((2R,7aS)-2-fluorotetrahydro-1H-pyrrolizin-7a(5H)-yl)methoxy)-7-(3-hydroxynaphthalen-1-yl)quinazolin-4-yl)-1-((Z)-2-fluoro-3-(pyridin-2-yl)acryloyl)piperazin-2-yl)acetonitrile], for which the half-maximal inhibitory concentration (IC50) stood at 23 nM.

On to `N#CC[C@H]1CN(c2nc(OC[C@@]34CCCN3C[C@H](F)C4)nc3c(F)c(-c4cc(O)cc5ccccc45)ccc23)CCN1C(=O)/C(F)=C/c1ncccn1` [Example 40, 2-((S)-4-(8-fluoro-2-(((2R,7aS)-2-fluorotetrahydro-1H-pyrrolizin-7a(5H)-yl)methoxy)-7-(3-hydroxynaphthalen-1-yl)quinazolin-4-yl)-1-((Z)-2-fluoro-3-(pyrimidin-2-yl)acryloyl)piperazin-2-yl)acetonitrile], for which the IC50 came to 11 nM.

With `N#CC[C@H]1CN(c2nc(OC[C@@]34CCCN3C[C@H](F)C4)nc3c(F)c(-c4cccc5cccc(Cl)c45)ccc23)CCN1C(=O)/C(F)=C/c1ccccn1` [Example 41, 2-((S)-4-(7-(8-chloronaphthalen-1-yl)-8-fluoro-2-(((2R,7aS)-2-fluorotetrahydro-1H-pyrrolizin-7a(5H)-yl)methoxy)quinazolin-4-yl)-1-((Z)-2-fluoro-3-(pyridin-2-yl)acryloyl)piperazin-2-yl)acetonitrile], the IC50 is 46 nM.

`N#CC[C@H]1CN(c2nc(OC[C@@]34CCCN3C[C@H](F)C4)nc3c(F)c(-c4cccc5cccc(Cl)c45)ccc23)CCN1C(=O)/C(F)=C/c1ncccn1` [Example 42, 2-((S)-4-(7-(8-chloronaphthalen-1-yl)-8-fluoro-2-(((2R,7aS)-2-fluorotetrahydro-1H-pyrrolizin-7a(5H)-yl)methoxy)quinazolin-4-yl)-1-((Z)-2-fluoro-3-(pyrimidin-2-yl)acryloyl)piperazin-2-yl)acetonitrile]: the IC50 was determined as 88 nM.

Take `Cc1cc(N)nc(-c2c(Cl)cc3c(N4CCC(CNC(=O)C(F)=Cc5ccccn5)CC4)nc(OCC4CCCN4C)nc3c2F)c1C(F)(F)F` [Example 44, (2Z)-N-({1-[(7M)-7-[6-amino-4-methyl-3-(trifluoromethyl)pyridin-2-yl]-6-chloro-8-fluoro-2-{[(2S)-1-methylpyrrolidin-2-yl]methoxy}quinazolin-4-yl]piperidin-4-yl}methyl)-2-fluoro-3-(pyridin-2-yl)prop-2-enamide]: the IC50 was found to be 350 nM.

For `Cc1cc(N)nc(-c2c(Cl)cc3c(N4C[C@H]5CC[C@@H]4[C@@H]5NC(=O)/C(F)=C/c4ccccn4)nc(OC[C@]45CCCN4C[C@H](F)C5)nc3c2F)c1C(F)(F)F` [Example 45, (2Z)-N-[(1R,4R,7R)-2-[(7M)-2-{[(2R,7aR)-2-fluoro-hexahydro-1H-pyrrolizin-7a-yl]methoxy}-7-[6-amino-4-methyl-3-(trifluoromethyl)pyridin-2-yl]-6-chloro-8-fluoroquinazolin-4-yl]-2-azabicyclo[2.2.1]heptan-7-yl]-2-fluoro-3-(pyridin-2-yl)prop-2-enamide], the IC50 was found to be 48 nM.

Turning to `Cc1ccc2[nH]ncc2c1-c1ccc2c(N3CCN(C(=O)/C(F)=C/c4ccccn4)[C@@H](CC#N)C3)nc(OC[C@@H]3CCCN3C)nc2c1F` [Example 50, 2-((2S)-1-((Z)-2-fluoro-3-(pyridin-2-yl)acryloyl)-4-(8-fluoro-7-(5-methyl-1H-indazol-4-yl)-2-(((S)-1-methylpyrrolidin-2-yl)methoxy)quinazolin-4-yl)piperazin-2-yl)acetonitrile], the IC50 turned out to be 100 nM.

`Cc1ccc2[nH]ncc2c1-c1ccc2c(N3CCN(C(=O)/C(F)=C/c4nccs4)[C@@H](CC#N)C3)nc(OC[C@@H]3CCCN3C)nc2c1F` [Example 51, 2-((2S)-1-((Z)-2-fluoro-3-(thiazol-2-yl)acryloyl)-4-(8-fluoro-7-(5-methyl-1H-indazol-4-yl)-2-(((S)-1-methylpyrrolidin-2-yl)methoxy)quinazolin-4-yl)piperazin-2-yl)acetonitrile]: the IC50 amounted to 160 nM.

In the case of `Cc1ccc2[nH]ncc2c1-c1ccc2c(N3CCN(C(=O)/C(F)=C/c4ncccn4)[C@@H](CC#N)C3)nc(OC[C@@H]3CCCN3C)nc2c1F` [Example 52, 2-((2S)-1-((Z)-2-fluoro-3-(pyrimidin-2-yl)acryloyl)-4-(8-fluoro-7-(5-methyl-1H-indazol-4-yl)-2-(((S)-1-methylpyrrolidin-2-yl)methoxy)quinazolin-4-yl)piperazin-2-yl)acetonitrile], the IC50 turned out to be 450 nM.

As for `Cc1ccc2[nH]ncc2c1-c1ccc2c(N3CCN(C(=O)/C(F)=C/c4cccnn4)[C@@H](CC#N)C3)nc(OC[C@@H]3CCCN3C)nc2c1F` [Example 53], the half-maximal inhibitory concentration (IC50) came out at 70 nM.

`CN1CCC[C@H]1COc1nc(N2CCN(C(=O)/C(F)=C/c3ncccn3)[C@@H](CC#N)C2)c2ccc(-c3c(O)cccc3F)c(F)c2n1` [Example 55, 2-((2S)-1-((Z)-2-fluoro-3-(pyrimidin-2-yl)acryloyl)-4-(8-fluoro-7-(2-fluoro-6-hydroxyphenyl)-2-(((S)-1-methylpyrrolidin-2-yl)methoxy)quinazolin-4-yl)piperazin-2-yl)acetonitrile]: the IC50 amounted to 1000 nM.

Take `CN1CCC[C@H]1COc1nc(N2CCN(C(=O)/C(F)=C/c3nccs3)[C@@H](CC#N)C2)c2ccc(-c3c(O)cccc3F)c(F)c2n1` [Example 56, 2-((2S)-1-((Z)-2-fluoro-3-(thiazol-2-yl)acryloyl)-4-(8-fluoro-7-(2-fluoro-6-hydroxyphenyl)-2-(((S)-1-methylpyrrolidin-2-yl)methoxy)quinazolin-4-yl)piperazin-2-yl)acetonitrile]: the IC50 amounted to 270 nM.

On to `CN1CCC[C@H]1COc1nc(N2CCN(C(=O)/C(F)=C/c3cccnn3)[C@@H](CC#N)C2)c2ccc(-c3c(O)cccc3F)c(F)c2n1` [Example 57], for which the IC50 was 130 nM.

As to `CCc1cccc2cccc(-c3ccc4c(N5CCN(C(=O)/C(F)=C/c6cnccn6)[C@@H](CC#N)C5)nc(OC[C@@H]5CCCN5C)nc4c3F)c12` [Example 58, 2-((S)-4-(7-(8-ethylnaphthalen-1-yl)-8-fluoro-2-(((S)-1-methylpyrrolidin-2-yl)methoxy)quinazolin-4-yl)-1-((Z)-2-fluoro-3-(pyrazin-2-yl)acryloyl)piperazin-2-yl)acetonitrile], the IC50 was 2400 nM.

With `CCc1cccc2cccc(-c3ccc4c(N5CCN(C(=O)/C(F)=C/c6ccccn6)[C@@H](CC#N)C5)nc(OC[C@@H]5CCCN5C)nc4c3F)c12` [Example 59, 2-((S)-4-(7-(8-ethylnaphthalen-1-yl)-8-fluoro-2-(((S)-1-methylpyrrolidin-2-yl)methoxy)quinazolin-4-yl)-1-((Z)-2-fluoro-3-(pyridin-2-yl)acryloyl)piperazin-2-yl)acetonitrile], the IC50 was found to be 260 nM.

As to `CCc1cccc2cccc(-c3ccc4c(N5CCN(C(=O)/C(F)=C/c6nccs6)[C@@H](CC#N)C5)nc(OC[C@@H]5CCCN5C)nc4c3F)c12` [Example 60, 2-((S)-4-(7-(8-ethylnaphthalen-1-yl)-8-fluoro-2-(((S)-1-methylpyrrolidin-2-yl)methoxy)quinazolin-4-yl)-1-((Z)-2-fluoro-3-(thiazol-2-yl)acryloyl)piperazin-2-yl)acetonitrile], the IC50 stood at 170 nM.

The IC50 is the concentration that inhibits the measured activity by half.
